Results from US9969686B2, “Synthesis of diindolylmethanes and indolo[3,2-b]carbazoles, compounds formed thereby, and pharmaceutical compositions containing them” (Wisconsin Alumni Research Foundation, priority 2014, dated 2018).
Read-outs that look alike come from different tables or passages of the source.

Assays:
GLP-1 secretion = GLP-1 secretion assay (Table 5; cell line not stated); format: cell-based
Method: The GLP-1 secretion assay identifies compounds that stimulate secretion of glucagonlikepeptide one (GLP-1) in mouse and human cell lines derived from gastrointestinal tract tissue. GLP-1 secretion is measured using an ELISA designed to detect the appropriate forms of GLP-1 secreted from these cells. If active in the cell-based GLP-1 assay, molecules can be further tested for selectivity in assays that measure activation of G-protein-coupled receptors (GPCRs) known to stimulate GLP-1 secretion. See, for example, “Glucagon-Like Peptide 1-Based Therapies for Type 2 Diabetes: A Focus on Exenatide,” Kathleen Dungan and John B. Buse; Clinical Diabetes 29 (1), (Winter 2011); and “Glucagon-Like Peptide 1 Secretion by the L-Cell,” Gareth E. Kim and Patricia L. Brubaker; Diabetes: 55 (supplement 2), (December, 2006).
The GLP-1 secretion, diabetes phenotypic testing identifies compounds that stimulate secretion of glucagon-like peptide one (GLP-1) in mouse and human cell lines derived from gastrointestinal tract tissue. GLP-1 secretion is measured using an Eli Lilly & Company (Indianapolis, Ind., USA) proprietary ELISA assay that was specifically designed to detect the appropriate forms of GLP-1 secreted from these cells. (Eli Lilly operates a program known Open Innovation Drug Discovery that performs such testing. See https://openinnovation.lilly.com/dd/.) If active in the cell-based GLP-1 assay, molecules are further tested for selectivity in assays that measure activation of GPCRs known to stimulate GLP-1 secretion. See Glucagon-Like Peptide 1-Based Therapies for Type 2 Diabetes: A Focus on Exenatide; Kathleen Dungan and John B. Buse; Clinical Diabetes: 29 (1), (Winter 2011); and Glucagon-Like Peptide 1 Secretion by the L-Cell; Gareth E. Kim and Patricia L. Brubaker; Diabetes: 55 (supplement 2), (December, 2006).

[1] = system: secreted PCSK9 in HepG2 cells; experiment: PCSK9 inhibition assay (AlphaLISA, secreted PCSK9); format: cell-based; conditions: Homo sapiens, Table 5
Text: PCSK9 expression is actively regulated at transcription levels. Statins are known to stimulate PCSK9 transcription which in turn curbs the efficacy of statins in LDL lowering in humans. […] The PCSK9 SI phenotypic assay is designed to identify compounds that inhibit synthesis of PCSK9 in human hepatoma cell lines (HepG2). See, for example, Horton, J. D., Cohen, J. C., and Hobbs, H. H., “PCSK9: a convertase that coordinates LDL catabolism,” J. Lipid Res. 50 Suppl, S172-177, (2009); Crunkhorn, S. “Trial watch: PCSK9 antibody reduces LDL cholesterol,” Nat Rev Drug Discov 11, 11, (2012); Vogel, R. A., “PCSK9 inhibition: the next statin,” J Am Coll Cardiol 59, 2354-2355, (2012); Li, H., Dong, B., Park, S. W., Lee, H. S., Chen, W., and Liu, J., “Hepatocyte nuclear factor 1alpha plays a critical role in PCSK9 gene transcription and regulation by the natural hypocholesterolemic compound berberine,” J Biol Chem 284, 28885-28895, (2009); and Cao, A., Wu, M., Li, H., and Liu, J., “Janus Kinase activation by cytokine oncostatin M decreases PCSK9 expression in liver cells,” J Lipid Res 52, 518-530, (2011).
Inhibition of secreted PCSK9 was measured in human hepatocellular carcinoma (HepG2) cells using an “AlphaLISA”®-brand assay. Given that this assay is run in an inhibition mode, the viability of cells was also assessed to rule out compounds whose PCSK9 inhibition resulted from deleterious effects on cell health. Freshly cultured HepG2 cells were harvested from poly-d-lysine-coated T225 cell culture flasks and plated in biocoat poly-d-lysine coated 384 black with clear bottom microtiter plates (BD BioCoat #356663; Becton, Dickinson and Company, Franklin Lakes, N.J., USA) at 20,000 cells/well in 60 ul of growth media (MEM+10% heat inactivated FBS+1% NEAA+1% sodium pyruvate+1% GlutaMAX). Cell plates were incubated overnight at 37° C. and 5% CO2 prior to compound treatment.
Compounds were serially diluted 3-fold in 100% DMSO to achieve a starting final assay plate concentration of 50 uM following a 20-fold dilution in assay media (MEM+5% heat inactivated FBS+1% NEAA+1% sodium pyruvate+1% GlutaMAX) and a 10-fold dilution into the cell plates. While the compounds were diluting, the cell plates were washed twice with 75 ul of assay media and refilled with 45 ul of assay media. The cell plates were incubated for 48 hrs at 37° C. and 5% CO2 prior to running the “AlphaLISA”®-brand assay. The “AlphaLISA”® bead mix was assembled in water and left to incubate 1 hr in the dark prior to use (1× “AlphaLISA”® buffer, 5 mg/ml mAb-PCSK9-A4 conjugated acceptor beads, 3.4 uM bioti-mAb-anti-PCSK9-B9, 5 mg/ml streptavidin-coated donor beads). […] In the dark, 5 ul of the bead mix was added to the ProxiPlates, and then the plates were left to incubate at ambient temperature in the dark overnight before being read on an Envision (excitation 680 nm and emission 615 nm). […] The plates were removed from the incubator, sealed with black tape, and read for propidium iodide stained nuclei using an Acumen-brand cell imaging system (TTP Labtech Ltd., Melbourn, Hertfordshire United Kingdom). Percent inhibitions at all concentrations tested were calculated relative to 0.5% DMSO (min effect), and the effect of 50 uM of a fully efficacious PCSK9 inhibitor for the PCSK9 inhibition assay (max effect), or 50 uM Brefeldin A for the viability assay (max effect). IC50 values were calculated using a 4 parameter logistic curve fitting equation.

IL5 = IL5 assay (Table 5); format: cell-based
[2] = system: IL-17 secretion from human peripheral blood mononuclear cells (PBMCs); experiment: IL-17 phenotypic assay; format: cell-based; conditions: PBMC, Table 5, read-out: IL17, IC50
Text: The IL-17 phenotypic assay seeks to identify inhibitors of IL-17 secretion from human peripheral blood mononuclear cells (PBMCs) following stimulation of memory T cells by IL-23, anti-CD3, and anti-CD28. Compounds of interest will inhibit IL-17. See W. Ouyang, J. K. Kolls, V. Zheng, “The biological functions of T helper 17 cell effector cytokines in inflammation,” Immunity, 28, 454-467 (2008); I. I. Ivanov, L. Zhou, D. R. Littman, “Transcriptional regulation of Th17 cell differentiation,” Semin Immunol, 19, 409-417 (2007); N. Mane I, D. Unutmaz, D. R. Littman, “The differentiation of human T(H)-17 cells requires transforming growth factor-beta and induction of the nuclear receptor RORgammat,” Nat Immunol, 9, 641-649 (2008); and M. Ciofani, A. Madar, C. Galan, M. Sellars, K. Mace, F. Pauli, A. Agarwal, W. Huang, C. N. Parkurst, M. Muratet, K. M. Newberry, S. Meadows, A. Greenfield, V. Vang, P. Jain, F. K. Kirigin, C. Birchmeier, E. F. Wagner, K. M. Murphy, R. M. Myers, R. Bonneau, D. R. Littman, “A validated regulatory network for Th17 cell specification.” Cell, 151, 289-303 (2012).

AhR = AhR (Homo sapiens (Human), UniProt P35869); experiment: ethoxyresorufin-O-deethylase (EROD) assay, AhR activation (CYP1A1 induction); format: cell-based; conditions: for increase of signal over DMSO treatment: at 10 nM concentration, data not shown
Sequence of AhR (P35869 11-848): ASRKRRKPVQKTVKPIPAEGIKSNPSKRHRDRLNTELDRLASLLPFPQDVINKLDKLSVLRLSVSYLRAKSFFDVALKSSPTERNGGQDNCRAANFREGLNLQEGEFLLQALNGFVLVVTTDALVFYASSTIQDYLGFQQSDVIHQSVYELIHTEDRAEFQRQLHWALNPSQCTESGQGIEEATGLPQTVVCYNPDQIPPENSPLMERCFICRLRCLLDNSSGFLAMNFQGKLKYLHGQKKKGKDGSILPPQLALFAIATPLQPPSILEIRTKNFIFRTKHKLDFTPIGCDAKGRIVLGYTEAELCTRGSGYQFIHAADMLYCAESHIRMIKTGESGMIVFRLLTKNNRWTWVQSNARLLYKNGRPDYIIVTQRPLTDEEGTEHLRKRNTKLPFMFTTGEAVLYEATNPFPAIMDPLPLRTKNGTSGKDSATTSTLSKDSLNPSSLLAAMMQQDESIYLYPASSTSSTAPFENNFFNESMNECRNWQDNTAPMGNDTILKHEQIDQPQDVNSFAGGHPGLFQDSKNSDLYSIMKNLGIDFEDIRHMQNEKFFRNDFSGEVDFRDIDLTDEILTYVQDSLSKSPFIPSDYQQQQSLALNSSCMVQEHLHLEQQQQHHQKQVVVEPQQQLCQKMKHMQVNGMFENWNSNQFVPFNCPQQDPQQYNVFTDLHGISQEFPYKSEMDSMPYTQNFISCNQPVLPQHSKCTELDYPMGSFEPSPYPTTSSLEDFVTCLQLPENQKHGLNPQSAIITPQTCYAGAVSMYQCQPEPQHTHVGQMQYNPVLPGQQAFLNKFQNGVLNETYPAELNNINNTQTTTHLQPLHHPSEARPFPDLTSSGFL
Method: The human Hep G2 cell line from the Small Molecule Screening and Synthesis Facility (UWCCC, Madison, Wis.) and was maintained in DMEM medium supplemented with 10% FBS. Cells were incubated at 37° C. in a humidified atmosphere supplemented with 5% CO2.
Preparation of cells: Cells were cleaved from T75 flasks with 0.05% trypsin. The cells were then collected by spinning at 1 g for 4 min. Excess media containing trypsin was removed from the pellet, which was then re-suspended in growth media. The cells were then counted using a hemocytometer. Cells were plated in sterile 96-well clear bottom black culture plates at a density of 20,000 cells per well in 0.1 mL of media. The cells were then incubated for 24 h at 37° C. in a humidified atmosphere supplemented with 5% CO2.
The ethoxyresorufin-O-deethylase (EROD) assay was performed on cell cultures of human Hep G2 cells. Briefly, 24 h after plating, cells in 96-well plates were treated with AhR agonists and allowed to incubate for 24 h. Each well was then rinsed with 200 uL of PBS buffer twice. To each well was then added 100 uL of 150 nM solution of 7-ethoxyresurufin and allowed to incubate for 2 h. Fluorescence measurements were obtained with a Safire II micro plate reader with excitation at 520 nm with a 25 nm bandwidth and emission at 595 nm with a 20 nm bandwidth.
The bioactivity of malassezin analogs was then investigated. The well-documented ethoxyresorufin-O-deethylase (EROD) assay was used to determine the EC50 values of the compounds towards AhR activation in HepG2 cells. Donato, M. T.; Gomezlechon, M. J.; Castell, J. V. Anal. Biochem. 1993, 213, 29; van Tonder, J. J., University of Pretoria Z. A., Thesis, 2011. This assay measures the induction of cytochrome P450-1A1 (CYP1A1), which is a major outcome of AhR activation. Whyte, J. J.; Jung, R. E.; Schmitt, C. J.; Tillitt, D. E. Crit. Rev. Toxicol. 2000, 30, 347. CYP1A1 selectively converts 7-ethoxyresorufin to the fluorescent product resorufin.

[3] = in human; cited from earlier work
[4] = EROD assay, HepG2 cells, 24 h treatment, read-out: EC50 (AhR Activity of Diindolylmethanes)

Molecule `Cc1ccc(S(=O)(=O)n2c(Cc3c[nH]c4cccc(C)c34)c(C)c3ccccc32)cc1` has an EC50 (GLP-1 secretion) of 2600 nM.
In the case of `Cc1ccc(S(=O)(=O)n2c(COC(C)C)c(C)c3ccccc32)cc1`, the EC50 (GLP-1 secretion) is reported as 7300 nM.
With `Cc1ccc(S(=O)(=O)n2c(Cc3cn(C)c4ccccc34)c(C(C)C)c3ccccc32)cc1` the IC50 [1] was 1100 nM.
With `Cc1ccc(S(=O)(=O)n2c(Cc3[nH]c4ccccc4c3CC#N)c(C)c3ccccc32)cc1` the IC50 (IL5) was greater than 30000 nM and the IC50 [2] was 3100 nM.
For `COc1ccc(Cc2c(C)c3ccccc3n2S(=O)(=O)c2ccc(C)cc2)c(OC)c1`, the IC50 [1] was 1100 nM and the EC50 (GLP-1 secretion) was 2900 nM.
`c1ccc2[nH]c(Cc3c[nH]c4ccccc34)cc2c1` [6′, 3-((1H-indol-2-yl)methyl)-1H-indole] showed an EC50 (AhR; [4]) of 215 ± 460 nM.
Molecule `O=Cc1c(Cc2c[nH]c3ccccc23)[nH]c2ccccc12` [Compound 6, 2-((1H-indol-3-yl)methyl)-1H-indole-3-carbaldehyde, reference compound] has an EC50 (AhR; [4]) of 270 ± 100 nM.
Molecule `COc1ccc2[nH]cc(Cc3cc4ccccc4[nH]3)c2c1` [Compound 10c] has an EC50 (AhR; [4]) of 94 ± 270 nM.
With `Cn1cc(Cc2cc3ccccc3[nH]2)c2ccccc21` [Compound 10d] the EC50 (AhR; [4]) was 86 ± 40 nM.
For `O=Cc1c(Cc2c[nH]c3ccc(Cl)cc23)[nH]c2ccccc12` [Compound 11a], the EC50 (AhR; [4]) was 93 ± 150 nM and the “increase of signal over DMSO treatment” value (AhR) was 5 fold.
`O=Cc1c(Cc2c[nH]c3c(Cl)cccc23)[nH]c2ccccc12` [Compound 11b] showed an EC50 (AhR; [4]) of 320 ± 100 nM.
In the case of `COc1ccc2[nH]cc(Cc3[nH]c4ccccc4c3C=O)c2c1` [Compound 11c], the EC50 (AhR; [4]) is reported as 230 ± 100 nM.
With `Cn1cc(Cc2[nH]c3ccccc3c2C=O)c2ccccc21` [Compound 11d] the “EC50 value relative to that of malassezin” value (AhR; EROD assay, HepG2 cells) was “about five”, the EC50 (AhR; [4]) was 55 ± 30 nM and the “increase of signal over DMSO treatment” value (AhR) was 6 fold.
In the case of `Clc1ccc2[nH]cc(Cc3cc4ccccc4[nH]3)c2c1` [Compound 2351377819], the IC50 [1] is reported as 10000 nM and the EC50 (GLP-1 secretion) is reported as 14800 nM.
`Clc1cccc2c(Cc3cc4ccccc4[nH]3)c[nH]c12` [Compound 2351377820] showed an IC50 [1] of 2800 nM and an EC50 (GLP-1 secretion) of 7200 nM.
For `Brc1ccc2[nH]cc(Cc3cc4ccccc4[nH]3)c2c1` [Compound 2351377823], the EC50 (GLP-1 secretion) was 6800 nM.
`Cn1cc(Cc2cc3ccccc3[nH]2)c2ccccc21` [Compound 2351377824] gave an IC50 [1] of 17900 nM and an EC50 (AhR; Table 5, read-out: AhR, EC50) of 90 nM.
In the case of `Clc1cc2c(cc1Cl)Oc1cc(Cl)c(Cl)cc1O2` [dioxin, 2,3,7,8-tetrachlorodibenzo-p-dioxin], the “half-life (metabolic stability)” value [3] is given as 7-10 years.
